Laboratory results from US20210196675A1, “USE OF GINKGO BILOBA TERPENE LACTONE IN PREPARATION OF DRUGS FOR PREVENTION AND/OR TREATMENT OF TREMORS AND HEALTHCARE PRODUCTS” (CHENGDU BAIYU PHARMACEUTICAL CO., LTD., priority 2018, published 2021).
Where a name gives a salt, the structure may show the parent alone.

Columns and labels:
[1] = tested on: mice with essential tremor; experiment: Rotating rod test in harmaline induced mouse model of essential tremor; type: in vivo, ICR male mice; details: for Residence Time on Rod, Time 0: 15 minutes after modeling with harmaline, immediately before administration; for Residence Time on Rod, Time 0 / Residence Time on Rod, 30 min / Residence Time on Rod, 60 min / Residence Time on Rod, 90 min / Residence Time on Rod, Pre-harmaline: mean ± SD; for Residence Time on Rod, 30 min: 30 min after time 0/administration; for Residence Time on Rod, 30 min / Residence Time on Rod, 60 min / Residence Time on Rod, 90 min: test groups 5 mg/kg·bw intraperitoneal, propranolol 2 mg/kg·bw gavage; for Residence Time on Rod, 60 min: 60 min after time 0/administration; for Residence Time on Rod, 90 min: 90 min after time 0/administration; for Ratio of area under the curve of each group to area under the curve of the model control group: area under the rod exercise ability recovery curve, model control group = 1, normal control group 6.47; for residence time on rod compared with model control group (in words): at each time point 30 min, 60 min, 90 min; for residence time on rod compared with model control group (in words) / recovery of exercise ability in the rotating rod test compared with model control (in words): p<0.05; for Residence Time on Rod, Pre-harmaline: baseline before harmaline and before administration, 10 mice per group, max 180 seconds; for recovery of exercise ability in the rotating rod test compared with model control (in words): from area under the curve, Table 2
Description: Effect of Ginkgo biloba terpene lactone on the Mouse Model of Essential Tremor Induced by Harmaline
The following animals are used: 100 […] (ICR) male mice of SPF grade, weighted 18-22 g, purchased from Chengdu Dashuo Experimental Animal Co., Ltd., with the animal production license number of SCXK (Sichuan) 2015-030.
100 mice were randomly assigned to ear label number and randomly divided into 10 groups according to weight stratified random number method, with 10 mice in each group.
The groups are: normal control group, model control group, propranolol hydrochloride tablet control group, Ginkgo biloba leave extract injection solution control group, ginkgolide injection group, ginkgolide A group, ginkgolide B group, bilobalide group, ginkgolide B/bilobalide group (GB:BB=1:1 w/w) and ginkgolide A/B/C group (A:B:C=1:1:1 w/w/w).
The normal control group and the model control group were administrated 0.9% sodium chloride injection by intraperitoneal injection at 0.1 mL/10 g·bw.
The hydrochloride tablet control group was administrated by gavage a solution (prepared with 0.9% sodium chloride injection) at 2 mg/kg·bw.
Ginkgolide injection group, ginkgolide A group, ginkgolide B group, bilobalide group, ginkgolide B/bilobalide group, ginkgolide A/B/C group were administrated by intraperitoneal injection at 5 mg/kg·bw.
Ginkgo biloba leave extract injection solution control group was administered by intraperitoneal injection at 5 mg/kg·bw.
On the day before the rotating rod test, all mice were given rotating rod training, so that they were familiar with the relevant movements and were able to maintain balance by climbing continuously, without falling from the rotating rod at a low rotating speed (10 circles/min).
First, a rotating rod test was performed on all mice. The result was recorded as Pre-harmaline, used as the basic value of their exercise ability.
15 minutes after modeling, the time when it is observed that the mice given harmaline show obvious tremor, reduced activity and ataxia symptoms, was took as time 0. A rotating rod test was performed on all mice at time 0. Then the mice were administered immediately.
After time 0, a rotating rod test was performed on all mice at time 30 min (30 min), time 60 min (60 min), and time 90 min (90 min).
Rotary rod test method: the mice were placed on the Rota Rod Fatigue Tester, and adapted for 20 seconds. After the mice stood steady on the rod, the tester was started and the rod was accelerated at a constant rate according to the setting. Each mouse's residence time on the rod, from the beginning of the test to the time when falling off the rod, was recorded respectively. The Rota Rod Fatigue Tester supports up to 6 channels for simultaneous testing.
The rod is set to rotate at an initial speed of 5 circles/min (5 c/min) which is increased at a constant rate to a maximum speed of 30 circles/min (30c/min) during 120 seconds, and kept at the maximum speed for 60 seconds. Therefore, each test costs 180 seconds in total, and the mice that had not yet fallen off the rod at the end of 180 seconds was recorded as having a residence time of 180 seconds on the rod.
Exercise ability change curves of the mice in each group were drawn, and the area under the curve was calculated.
The experimental data were processed by using a SPSS 19.0 statistical software. The measurement data are expressed as mean±standard deviation (±SD). Data normality test was performed using the Kolmogorov-Smirnov method.

[2] = tested on: Patients with Vascular Tremor; experiment: Observation of dropping pills on patients with vascular tremor (tremor score, adverse reactions); type: in vivo, human; details: Patients 1, 2, 3, general information before treatment
Description: Diagnosis criteria: A. Reduced movement, muscle rigidity, forward gait, broken steps and reciprocating; B. Positive signs of the nervous system; C. A history of hypertension and cerebral arteriosclerosis.
Exclusion criteria: Tremor paralysis caused by drugs and other diseases are excluded.
The following 6 items related to tremor are scored: 1) patient complaint; 2) upper limbs tremor procedure; 3) head, jaw, tongue and lower limbs tremor degree; 4) full water test; 5) dressing, eating, buttoning and chopsticks using; 6) drawing circles and straight lines. The score for each item is classified as: normal (scored 0 piont), mild (scored 1 point), moderate (scored 2 points) and severe (scored 3 points).
Ineffective: the difference in tremor score before and after the treatment is −1 to 1
(§1) Deterioration: the difference in tremor score before and after the treatment is ≤−2.

[3] = tested on: Patients with Essential Tremor; experiment: Observation of dropping pills on patients with essential tremor (tremor score, adverse reactions); type: in vivo, human; details: Patient 2, general information before treatment
Description: The following 6 items related to tremor are scored: 1) patient complaint; 2) upper limb tremor procedure; 3) head, jaw, tongue and lower limb tremor degree; 4) full water test; 5) dressing, eating, buttoning and chopstick using; and 6) drawing circles and straight lines. The score for each item is classified as: normal (scored 0 piont), mild (scored 1 point), moderate (scored 2 points) and severe (scored 3 points).
Ineffective: the difference in tremor score before and after the treatment is −1 to 1.
as §1

Row | Compound | Residence Time on Rod, Time 0 [1] [s] | Residence Time on Rod, 30 min [1] [s] | Residence Time on Rod, 60 min [1] [s] | Residence Time on Rod, 90 min [1] [s] | Ratio of area under the curve of each group to area under the curve of the model control group [1] | residence time on rod compared with model control group (in words) [1] | Residence Time on Rod, Pre-harmaline [1] [s] | recovery of exercise ability in the rotating rod test compared with model control (in words) [1] | effect in this patient (patient history) [2] | effect in this patient (patient history) [3]
1 | CC1C(=O)OC2C(O)C34C5CC(C(C)(C)C)C36C(OC(=O)C6O)OC4(C(=O)O5)C12O (stereo not shown) [Ginkgolide B, ginkgolide B] | 43.9 ± 12.3 | 52.6 ± 9.8 | 65.8 ± 12.8 | 100.2 ± 14.2 | 2.39 | significantly higher than that of the model control group | 175.7 ± 18.3 | significantly better than that of model control mice | – | –
2 | CC(C)NCC(O)COc1cccc2ccccc12 (stereo not shown) [Propranolol hydrochloride tablet, Propranolol hydrochloride, reference compound] | 41.6 ± 12.8 | 60.1 ± 12.8 | 77.6 ± 10.3 | 119.3 ± 13.0 | 2.74 | significantly higher than that of the model control group | 176.6 ± 12.9 | significantly better than that of model control mice | – | –
3 | CC(C)(C)[C@]1(O)CC2OC(=O)CC23C(=O)OC2OC(=O)[C@H](O)C231 (stereo partly shown) [Bilobalide, bilobalide] | 40.0 ± 15.6 | 48.2 ± 12.8 | 61.2 ± 15.2 | 90.6 ± 13.9 | 2.20 | significantly higher than that of the model control group | 171.6 ± 17.9 | significantly better than that of model control mice | – | –
4 | N[C@@H](Cc1ccc(O)c(O)c1)C(=O)O [Levodopa] | – | – | – | – | – | – | – | – | no effect | no effect
5 | C[C@@H]1C(=O)O[C@H]2C[C@@]34[C@H]5C[C@@H](C(C)(C)C)[C@]36[C@@H](OC(=O)[C@@H]6O)O[C@@]4(C(=O)O5)[C@]21O [Ginkgolide A, ginkgolide A] | 42.6 ± 10.8 | 50.8 ± 10.9 | 60.3 ± 13.1 | 91.4 ± 11.5 | 2.24 | significantly higher than that of the model control group | 170.6 ± 21.2 | significantly better than that of model control mice | – | –
